# Measured values taken from paper PMC8073005, “Antifungal Activity and DNA Topoisomerase Inhibition of Hydrolysable Tannins from Punica granatum L” (International Journal of Molecular Sciences, 2021).
# Tests used:
# [1] = tested on: Saccharomyces cerevisiae 42; assay: MIC, broth microdilution (human pathogens); assay type: cell-based; conditions: Saccharomyces cerevisiae, 42, 48 h, read-out: Minimum inhibitory concentration (MIC)
# [2] = tested on: Candida albicans 41; assay: MIC, broth microdilution (human pathogens); assay type: cell-based; conditions: Candida albicans, 41, 48 h, read-out: Minimum inhibitory concentration (MIC)
# [3] = tested on: Candida strains; assay: Agar Disk Diffusion Assay, Candida strains; assay type: cell-based; conditions: 100 µg
# [4] = tested on: Candida albicans H; assay: MIC, broth microdilution (human pathogens); assay type: cell-based; conditions: Candida albicans, 48 h, read-out: Minimum inhibitory concentration (MIC)
# [5] = tested on: other genera tested (other fungi strains); assay: Agar Disk Diffusion Assay, other genera; assay type: cell-based; conditions: 100 µg
# Experimental: The antifungal activity of pomegranate compounds was evaluated against 19 clinically isolated fungal strains, including nine belonging to Candida albicans species, two belonging to Aspergillus genus, one belonging to Cryptococcus genus, and one Saccharomyces cerevisiae. The C. albicans strains were isolated on CHROMID agar, Aspergillus and Cryptococcus genus were isolated on SDA-CAF and one Saccharomyces cerevisiae on SDA. All the isolates were confirmed by matrix-assisted laser desorption ionization (MALDI) time-of-flight mass spectrometry (TOF/MS). Strains from the American Type Culture Collection (ATCC) were included. All strains were maintained in SDB with 20% (w/v) glycerol at −80 °C until use and sub-cultured in SDA before each test.
# The preliminary determination of the antifungal activity of the target compounds (punicalagin, punicalin, ellagic acid, and gallic acid) from pomegranate was carried out by means of the agar disk diffusion assay, according to the standard procedure of the Clinical and Laboratory Standards Institute, with slight modifications. Plates containing SDA were uniformly spread with 100 μL of 10^3 conidia/mL of each strain suspension. […] Disks containing fluconazole (25 μg), amphotericin B (25 μg) and DMSO (20 μL) were used as the positive and the negative control, respectively. The antifungal activity of pomegranate compounds was evaluated by measuring the diameter of the clear inhibition zone formed right around the disks after 48 h incubation at 30 ± 1 °C. The experiment was carried out in triplicate.
# [6] = tested on: Candida zeylanoides 33; assay: MIC, broth microdilution (human pathogens); assay type: cell-based; conditions: Dujonia zeylanoides, 33, 48 h, read-out: Minimum inhibitory concentration (MIC)
# [7] = tested on: Candida parapsilosis 7; assay: MIC, broth microdilution (human pathogens); assay type: cell-based; conditions: Lodderomyces parapsilosis, 7, 48 h, read-out: Minimum inhibitory concentration (MIC)
# [8] = tested on: Botrytis cinerea B2; assay: MIC, micro-spectrophotometric growth assay (phytopathogens); assay type: cell-based; conditions: Botrytis cinerea B2; PDB, 24 °C, dark; imazalil at label dose; read-out: Minimum inhibitory concentration (MIC)
# [9] = tested on: Aspergillus brasiliensis ATCC 16404; assay: MIC, broth microdilution (human pathogens); assay type: cell-based; conditions: Aspergillus brasiliensis, ATCC16404, 48 h, read-out: Minimum inhibitory concentration (MIC)
# [10] = molecular target: T1, topoisomerase I from Candida albicans (Candida albicans, UniProt Q00313); assay: Topoisomerase I supercoiled DNA relaxation inhibition; assay type: biochemical
# T1 sequence (Q00313 1-778): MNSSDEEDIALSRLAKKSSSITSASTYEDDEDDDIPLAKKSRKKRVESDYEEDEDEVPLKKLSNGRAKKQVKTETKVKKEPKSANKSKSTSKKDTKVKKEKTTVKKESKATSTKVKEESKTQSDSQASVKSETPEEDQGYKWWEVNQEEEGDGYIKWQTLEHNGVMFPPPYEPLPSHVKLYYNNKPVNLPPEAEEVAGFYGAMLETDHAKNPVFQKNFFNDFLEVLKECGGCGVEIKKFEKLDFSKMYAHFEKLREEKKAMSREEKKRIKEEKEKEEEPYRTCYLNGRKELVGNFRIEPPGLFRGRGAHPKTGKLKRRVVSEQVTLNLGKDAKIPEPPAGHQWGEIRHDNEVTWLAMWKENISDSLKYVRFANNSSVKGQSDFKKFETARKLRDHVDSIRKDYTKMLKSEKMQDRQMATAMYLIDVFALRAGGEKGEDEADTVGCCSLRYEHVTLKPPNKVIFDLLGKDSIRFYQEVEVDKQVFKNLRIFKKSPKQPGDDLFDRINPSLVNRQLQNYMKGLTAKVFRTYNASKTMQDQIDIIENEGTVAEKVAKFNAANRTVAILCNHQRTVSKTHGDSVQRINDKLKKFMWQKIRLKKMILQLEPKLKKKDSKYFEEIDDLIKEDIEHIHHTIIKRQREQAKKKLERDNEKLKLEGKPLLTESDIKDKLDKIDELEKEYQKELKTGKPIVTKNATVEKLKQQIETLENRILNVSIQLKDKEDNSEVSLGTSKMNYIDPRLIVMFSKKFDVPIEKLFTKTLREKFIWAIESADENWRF
# [11] = tested on: Candida albicans 40; assay: MIC, broth microdilution (human pathogens); assay type: cell-based; conditions: Candida albicans, 40, 48 h, read-out: Minimum inhibitory concentration (MIC)
# [12] = tested on: Candida albicans 1; assay: MIC, broth microdilution (human pathogens); assay type: cell-based; conditions: Candida albicans, 1, 48 h, read-out: Minimum inhibitory concentration (MIC)
# [13] = tested on: Candida albicans SC 5314; assay: MIC, broth microdilution (human pathogens); assay type: cell-based; conditions: Candida albicans, SC5314, 48 h, read-out: Minimum inhibitory concentration (MIC)
# [14] = tested on: Cryptococcus var. grubii H99 serotype A; assay: MIC, broth microdilution (human pathogens); assay type: cell-based; conditions: Cryptococcus, 48 h, read-out: Minimum inhibitory concentration (MIC)
# [15] = tested on: Candida albicans ATCC 10321; assay: MIC, broth microdilution (human pathogens); assay type: cell-based; conditions: Candida albicans, ATCC10321, 48 h, read-out: Minimum inhibitory concentration (MIC)
# [16] = tested on: Cryptococcus 67; assay: MIC, broth microdilution (human pathogens); assay type: cell-based; conditions: Cryptococcus, 67, 48 h, read-out: Minimum inhibitory concentration (MIC)
# [17] = tested on: Candida albicans 2; assay: MIC, broth microdilution (human pathogens); assay type: cell-based; conditions: Candida albicans, 2, 48 h, read-out: Minimum inhibitory concentration (MIC)
# [18] = tested on: Coniella granati M0_C2; assay: MIC, micro-spectrophotometric growth assay (phytopathogens); assay type: cell-based
# [19] = tested on: Candida albicans SC 5314; assay: Time-kill curves; assay type: cell-based; conditions: C. albicans SC 5314; compound at its MIC value; 0–96 h
# [20] = tested on: Cryptococcus neoformans B 3501; assay: MIC, broth microdilution (human pathogens); assay type: cell-based; conditions: Cryptococcus neoformans, B3501, 48 h, read-out: Minimum inhibitory concentration (MIC)
# [21] = tested on: Cryptococcus neoformans ATCC 11240; assay: MIC, broth microdilution (human pathogens); assay type: cell-based; conditions: Cryptococcus neoformans, ATCC11240, 48 h, read-out: Minimum inhibitory concentration (MIC)
# [22] = tested on: Candida albicans 44; assay: MIC, broth microdilution (human pathogens); assay type: cell-based; conditions: Candida albicans, 44, 48 h, read-out: Minimum inhibitory concentration (MIC)
# [23] = tested on: C. albicans 1 (clinically isolated strain); assay: Time-kill curves; assay type: cell-based, Candida albicans; conditions: compound at its MIC value, 0–96 h
# [24] = tested on: Candida parapsilosis; assay: MIC, broth microdilution (human pathogens); assay type: cell-based; conditions: Lodderomyces parapsilosis, 48 h, read-out: Minimum inhibitory concentration (MIC)
# [25] = tested on: Colletotrichum acutatum s.s. M146-2; assay: MIC, micro-spectrophotometric growth assay (phytopathogens); assay type: cell-based, Colletotrichum acutatum sensu stricto
# [26] = tested on: Aspergillus candidus 3; assay: MIC, broth microdilution (human pathogens); assay type: cell-based; conditions: Aspergillus candidus, 3, 48 h, read-out: Minimum inhibitory concentration (MIC)
# [27] = tested on: Alternaria alternata AL19; assay: MIC, micro-spectrophotometric growth assay (phytopathogens); assay type: cell-based; conditions: Alternaria alternata AL19; PDB, 24 °C, dark; imazalil at label dose; read-out: Minimum inhibitory concentration (MIC)
# [28] = tested on: Aspergillus candidus 25; assay: MIC, broth microdilution (human pathogens); assay type: cell-based; conditions: Aspergillus candidus, 25, 48 h, read-out: Minimum inhibitory concentration (MIC)
# [29] = molecular target: DNA topoisomerase I; set-up: method as in PMID 1324981; conditions: reported; cited from earlier work
compound,measurement,setting,value
"O=C1O[C@H]2[C@@H]3OC(=O)c4cc(O)c(O)c(O)c4-c4c(O)c(O)c5oc(=O)c6c(c(O)c(O)c7oc(=O)c4c5c76)-c4c(cc(O)c(O)c4O)C(=O)OC[C@H]3OC(O)[C@@H]2OC(=O)c2cc(O)c(O)c(O)c2-c2c1cc(O)c(O)c2O (mixture of isomers) [Punicalagin, punicalagin]",MIC,[1],1.4 µM
same,MIC,[2],92.2 µM
same,share of Candida strains with inhibition zone from 21 to 30 mm,[3],82%
same,MIC,[4],92.2 µM
same,share of other genera tested with inhibition zone from 21 to 30 mm,[5],63%
same,MIC,[6],92.2 µM
same,MIC,[7],5.5 µM
same,MIC,[8],92.2 µM
same,MIC,[9],2.8 µM
same,IC50,[10],9 ± 1.2 µM
same,MIC,[11],5.5 µM
same,MIC,[12],1.4 µM
same,MIC,[13],0.7 µM
same,MIC,[14],92.2 µM
same,MIC,[15],0.7 µM
same,MIC,[16],92.2 µM
same,MIC,[17],1.4 µM
same,growth reduction,"[18]; C. granati, 48 h of incubation",83%
same,MIC,"[18]; Coniella granati M0_C2, PDB, 24 °C, dark, imazalil at label dose, read-out: Minimum inhibitory concentration (MIC)",184.4 µM
same,time-kill curve (susceptibility time-course),[19],major reduction in the number of C. albicans SC 5314 cells
same,MIC,[20],46.1 µM
same,MIC,[21],23 µM
same,MIC,[22],92.2 µM
same,time-kill curve (susceptibility time-course),[23],preserved the antifungal activity until the end of the test (96 h)
same,MIC,[24],0.7 µM
same,growth reduction,"[25]; C. acutatum s.s., at 48 h",66%
same,MIC,"[25]; Colletotrichum acutatum s.s. M146-2, PDB, 24 °C, dark, imazalil at label dose, read-out: Minimum inhibitory concentration (MIC)",184.4 µM
same,MIC,[26],92.2 µM
same,MIC,[27],92.2 µM
same,MIC,[28],92.2 µM
"O=C(O)C[C@@H]1C(=O)O[C@H]2[C@@H]3OC(=O)c4cc(O)c(O)c(O)c4-c4c(cc(O)c(O)c4O)C(=O)OC[C@H]2O[C@@H](OC(=O)c2cc(O)c(O)c(O)c2)[C@@H]3OC(=O)c2cc(O)c(O)c3c2[C@H]1[C@H](O)C(=O)O3 [CHEMBL525240, Chebulagic acid]",IC50,[29],0.05 µM
